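Grown in 96-well plates, cells were treated for 48 hours with each compound at five concentrations. Insufficient inhibition: endpoint recorded as highest concentration tested. Definition used: TGI = concentration required for complete inhibition of growth.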
Legend:
Assay in all cases: DTP human tumour cell line panel, 48 h
OVCAR-4 ovarian = system: OVCAR-4 ovarian
HOP-62 NSCLC = system: HOP-62 NSCLC
PC-3 prostate = system: PC-3 prostate
SNB-19 CNS = system: SNB-19 CNS
T-47D breast = system: T-47D breast
DU-145 prostate = system: DU-145 prostate
COLO 205 colon = system: COLO 205 colon
OVCAR-3 ovarian = system: OVCAR-3 ovarian
MOLT-4 leukemia = system: MOLT-4 leukemia
SF-539 CNS = system: SF-539 CNS

Structure (SMILES)	TGI (OVCAR-4 ovarian) [µM]	TGI (HOP-62 NSCLC) [µM]	TGI (PC-3 prostate) [µM]	TGI (SNB-19 CNS) [µM]	TGI (T-47D breast) [µM]	TGI (DU-145 prostate) [µM]	TGI (COLO 205 colon) [µM]	TGI (OVCAR-3 ovarian) [µM]	TGI (MOLT-4 leukemia) [µM]	TGI (SF-539 CNS) [µM]
C=C(C(=O)OC)[C@H]1CC/C(C)=C/CC/C(C)=C/CC[C@@]2(C)O[C@@H]2C1	> 100	42.5	46.4	> 100	44.7	58.2	28.6	34.4	35.5	32.2
CCCCCCCCC[n+]1cccc(C2C(C(=O)OCC)=C(C)NC(C)=C2C(=O)OCC)c1	21.1	28.7	15.2	11.2	20.3	25.9	8.06	11.8	19.2	15.6
COc1ccc(C2=NNC(=O)c3ccccc3N2c2nc(-c3cccs3)nc3ccc(Br)cc23)cc1	> 100	49.5	91.4	> 100	> 100	> 100	> 100	52.5	> 100	39.3
CCCC(=O)OC1CC(n2cc(F)c(=O)[nH]c2=O)OC1CO (centres undefined)	> 10	> 10	> 10	> 10	> 10	> 3.23	> 10	> 10	> 10	0.385
OC(O)(C(F)(F)F)C(F)(F)F	> 100	> 100	> 100	> 100	> 100	> 100	> 100	> 100	> 100	> 100
CC1(C)Oc2ccc3c(=O)c4ccccc4oc3c2C1C(=O)O (centres undefined)	> 100	> 100	> 100	–	> 100	> 100	> 100	> 100	> 100	> 100
CSc1ccccc1P(CCP(c1ccccc1SC)c1ccccc1SC)c1ccccc1SC	> 100	> 100	> 100	> 100	> 100	> 100	> 53	> 33.5	> 100	> 79.1
COC(=O)C1=C(C)NC2(C)OC(C)(O)C(C(C)=O)C12C(C)=O (centres undefined)	> 100	> 100	> 100	> 100	> 100	> 100	> 100	> 100	> 100	57.5
COc1cc(S(=O)(=O)N/N=C/c2cc(Br)c(O)c(OC)c2)c(OC)cc1NC(C)=O	> 100	> 100	> 100	> 100	> 100	> 100	51.3	> 100	> 100	41.8
Cc1ccc(S(=O)(=O)N2CCN(CCO)CCN(S(=O)(=O)c3ccc(C)cc3)CCN(CCO)CC2)cc1	37.6	81.5	> 100	> 100	36.2	34.8	33.2	44.5	57.1	33.4
COc1ccc(C(C)NNC(=O)c2ccncc2)cc1F (centres undefined)	> 100	> 100	> 100	> 100	> 100	> 100	> 100	> 100	> 100	> 100
c1ccc2c(c1)c1c3n2-c2cc(on2)C3CCC1 (centres undefined)	> 100	> 100	> 100	> 100	> 100	> 100	> 100	> 100	> 100	> 100
CCCCCCCCCCCCCCCCNc1ccn(C2CC(OP(=O)(O)OCC3OC(n4cc(CC)c(=O)[nH]c4=O)CC3O)C(CO)O2)c(=O)n1 (centres undefined)	> 100	53.9	37.1	31.7	> 100	> 100	92.4	> 100	41.3	34.4
C[C@@H]1OCC(O)C([C@H]2OC(c3ccccc3)=N[C@H]2CO)O1 (some centres undefined)	> 100	> 100	> 100	> 100	> 100	> 100	> 100	> 100	> 100	> 100
C=C1C(=O)O[C@H]2C3C(=C(C)CC[C@@H]12)C(=O)[C@@H]1OC31C (some centres undefined)	3.39	28.6	7.1	29.5	3.96	25.8	2.66	4.38	3.27	6.75
COC(=O)C[C@H](CCSC)NC(=O)C[C@H](CCSC)NC(=O)C[C@H](CCSC)NC(=O)OC(C)(C)C	55.9	> 100	> 100	51.5	> 100	> 100	> 100	48	> 100	54.1
CCOC(=O)c1cn(C)nc1N/C(C)=C\C(=O)c1ccccc1	> 100	> 100	> 100	> 100	> 100	> 100	> 100	> 100	> 100	> 100
C/C(=C\c1ccccc1)C(=O)NCc1ccc(C(=O)NCCc2c[nH]c3ccccc23)cc1	> 100	> 100	> 100	> 100	> 100	> 100	> 100	> 100	> 100	> 100
CC1(O)C(=O)OC2CC([C@]3(O)CCC4[C@@H]5C[C@H]6O[C@]67[C@@H](O)C=CC(=O)[C@]7(C)C5CC[C@@]43C)C1(C)C2 (some centres undefined)	26.5	> 100	50.5	> 100	18.5	75.2	20.7	35	31.6	44.5
COc1ccc(NC(=S)NNC(=O)c2cc(-c3ccccc3)nc3ccccc23)cc1	65.1	33.3	55.1	> 100	59.7	45.4	97.4	33.1	59.2	27.2
COc1cccc(C2CC(=O)c3cccn32)c1 (centres undefined)	> 100	> 100	> 100	> 100	> 100	> 100	> 100	> 100	> 100	> 100

— PubChem BioAssay (NCI)
